Results published in patent US6096725A, “Methods of using αGal oligosaccharides as immune system targeting agents” (Neose Technologies, Inc., priority 1997, dated 2000).
Entries after “also recorded” stand apart in the source; their conditions may differ. Read-outs that look alike come from different tables or passages of the source.

Tests used:
[1] = system: anti-αGal IgG and IgM antibodies; assay: In vitro mouse laminin ELISA: soluble oligosaccharides as neutralizers of anti-αGal antibodies; format: binding; conditions: serum pre-incubated with oligosaccharide 1 hour 37° C.; result in words
Description: In vitro laminin ELISA evaluation of αGal oligosaccharides as neutralizers of anti-αGal antibodies. Mouse laminin is a basement membrane glycoprotein that expresses 50-70 oligosaccharides terminating in Galα1-3Gal, i.e., the αGal motif (Arumugham et al., 1986, Biochem. Biophys. Aeta 883:112). In this assay, immobilization of mouse laminin on microtiter plates serves as a capture ligand for anti-αGal antibodies. […] The example provides a method by which to determine the ability of αGal oligosaccharides and pharmaceutically acceptable derivative of the invention to bind to anti-αGal antibodies and to thereby remove these antibodies from the serum, neutralize anti-αGal antibodies, and/or target anti-αGal directed complement-mediated lytic attack to specific tissue or cell types. The example also provides a method by which the effectiveness of the methods of the invention can be evaluated and dosages determined.
Sera were mixed with serial dilutions of αGal oligosaccharides (αGal-CHO) at 37° C. for 1 hour, then added to mouse laminin-coated microtiter plates and incubated for 1 hour to allow binding. The microtiter plates were coated with 20 μg/mL mouse laminin in 50 mM NaHCO3 buffer, pH 9.5 at 4° C. overnight, blocked with SuperBlock solution (Pierce) for 2 hours, and then washed 3 times with SuperBlock solution. After washing excess serum away, bound IgG and IgM was measured by adding goat anti-human IgG (or IgM) conjugated to alkaline phosphatase and incubating for 1 hour, washing, and adding substrate (pNPP).

[2] = system: anti-αGal antibodies (serum IgG and IgM); assay: In vitro immobilized αGal pentasaccharide glycinamide ELISA; format: binding; conditions: baboon serum pre-incubated with oligosaccharide 1 hour 37° C.; result in words
Description: In vitro immobilized αGal oligosaccharide ELISA analysis evaluation of anti-αGal antibody titer and of αGal oligosaccharides as neutralizers of anti-αGal antibodies. This example provides an assay that may be applied to determine the ability of αGal oligosaccharides and pharmaceutically acceptable derivative of the invention to bind to anti-αGal antibodies and to thereby remove these antibodies from the serum or plasma, neutralize anti-αGal antibodies, and/or target complement-mediated lytic attack to specific tissue or cell types. Such an ELISA is additionally useful in clinical monitoring of anti-αGal antibodies in blood of patients in advance of, and following xenotransplantation of organs from animals that express the αGal epitope.
The derivative of the αGal pentasaccharide (αGal pentasaccharide glycinamide) was synthesized and immobilized on N-oxysuccinimide microtiter plates (Costar) (0.5 mg/ml αGal pentasaccharide glycinamide) in bicarbonate buffer, pH 9.0, overnight at 4° C.; the plate was blocked first for 1 hour with 1M ethanolamine in the same buffer and secondly with phosphate buffered saline, pH 7.4, containing 1% bovine serum albumin and 0.05% Tween 20 and 0.02% NaN3 or PBNT. PBNT was used for all three subsequent plate washes and as a diluent for the antibodies. […] The optical density at 405 nm was recorded.

[3] = system: anti-αGal antibody; conditions: Neethling et al., 1996; cited from earlier work
[4] = system: pig kidney cells, PK-15; assay: In vitro cytotoxicity of human sera on PK-15 monolayers; format: cell-based; conditions: sera of individual humans; result in words
Method: Sera were incubated with serial dilutions of αGal oligosaccharides at 37° C. for 1 hour, then added to αGal-expressing monolayers (pig kidney cells, PK-15) in Terasaki plates for 1 hour at 37° C. Cytotoxicity was mediated by either endogenous complement, or the sera were de-complemented (heat inactivated for 30 minutes at 56° C.) and exogenous (rabbit) complement was added. After washing away excess serum, the viable dye mix "live-dead" (calcein AM/ethidium homodimer (Molecular Probes Inc., Eugene Oreg.)) was added and monolayers were scored for viability by fluorescence microscopy.

[5] = Pharmacokinetics after 15 minute intravenous bolus in baboons; format: in vivo, baboon; conditions: for clearance / half-life / Vd: baboon, plasma, iv, 500 umol/kg, 0.5 mMol/Kg 15 minute i.v. bolus; for Vd: read-out: Volume of Distribution
Method: The pharmacokinetics of the αGal trisaccharide compositions and the αGal pentasaccharide compositions were determined by delivering to one baboon by 15 minute intravenous bolus, 0.5 mMol/Kg of one oligosaccharide and 48 hours later, delivering 0.5 mmol/Kg of the second oligosaccharide, and for a second baboon, delivering the oligosaccharides according to the same procedure, but in the reverse order.
(§1) Three Baboons were outfitted with indwelling venous and arterial catheters to the femoral vessels, and held in place with the aid of a jacket. Oligosaccharides were administered through the catheter in a 15 minute continuous infusion.
The clearance is used to calculate the infusion rate needed to maintain a desired drug concentration. The half-life describes how quickly concentrations diminish with time. Mathematical formulations known in the art were applied to estimate the pharmacokinetic parameters of the αGal trisaccharide and αGal pentasaccharide. […] Compared to other drugs, the volumes of distribution of these oligosaccharides are low, less than the extravascular water volume (<400 mL/kg). The clearance is typical of compounds eliminated by GFR (glomerular filtration rate).

[6] = system: anti-αGal antibody; assay: In vivo blood serum analysis: serum anti-αGal antibody neutralizing capacity in baboons; design: species or system baboon; conditions: monovalent oligosaccharide
Description: Pharmokinetics of αGal trisaccharides and αGal pentasaccharides in baboons. This example presents a study of the pharmokinetic profile and serum anti-αGal antibody neutralizing capacity in baboons of αGal trisaccharides and αGal pentasaccharides and previews the compounds' suitability for use in the prevention of hyperacute rejection of porcine organs xenotransplanted into baboons.
as §1

[7] = system: hyperacute rejection; conditions: cited from earlier work
[8] = to attain 0.5 mM steady state serum concentration
[9] = to attain 1.0 mM steady state serum concentration
[10] = to attain 2.0 mM steady state serum concentration

OC[C@H]1O[C@@H](O[C@H]2[C@H](O)[C@@H](O)C(O)O[C@@H]2CO)[C@H](O)[C@@H](O)[C@H]1O (some centres unmarked) [lactose, galactoseβ1-4glucose]
Inhibition of anti-αGal IgG and IgM antibody binding to immobilized mouse laminin [1]: do not inhibit antibody binding

OC[C@H]1O[C@@H](O[C@@H]2[C@H](O)[C@@H](O)C(O)O[C@@H]2CO)[C@H](O)[C@@H](O)[C@H]1O (some centres unmarked) [Galβ1-4Gal]
Inhibition of anti-αGal IgG and IgM antibody binding to immobilized mouse laminin [1]: do not inhibit antibody binding
Inhibition of serum IgG and IgM binding to immobilized αGal pentasaccharide glycinamide [2]: minimally

OC[C@H]1O[C@H](O[C@H]2[C@@H](O)[C@@H](CO)OC(O)[C@@H]2O)[C@H](O)[C@@H](O)[C@H]1O (some centres unmarked) [αGal disaccharide, Galα1-3Gal]
Neutralization of anti-αGal antibody in vitro, in words [3]: effective in neutralizing the anti-αGal antibody in vitro

CC(=O)N[C@H]1[C@H](O[C@H]2[C@@H](O)[C@@H](CO)O[C@@H](O[C@H]3[C@H](O)[C@@H](O)C(O)O[C@@H]3CO)[C@@H]2O)O[C@H](CO)[C@@H](O[C@@H]2O[C@H](CO)[C@H](O)[C@H](O)[C@H]2O)[C@@H]1O (some centres unmarked) [Galβ1-4GlcNAcβ1-3 Galβ1-4Glc]
Inhibition of anti-αGal IgG and IgM antibody binding to immobilized mouse laminin [1]: do not inhibit antibody binding

CC(=O)N[C@H]1C(O)O[C@H](CO)[C@@H](O[C@@H]2O[C@H](CO)[C@H](O)[C@H](O[C@H]3O[C@H](CO)[C@H](O)[C@H](O)[C@H]3O)[C@H]2O)[C@@H]1O (some centres unmarked) [αGal trisaccharide, Galα1-3Galβ1-4GlcNAc]
Inhibition of anti-αGal IgG and IgM antibody binding to immobilized mouse laminin [1]: slightly better inhibitor of IgG (FIG. 1A) and IgM (FIG. 1B) binding to laminin than αGal pentasaccharide
Inhibition of serum cytotoxicity toward PK-15 cells [4]: slightly better inhibitor of cytotoxicity than αGal pentasaccharide; also recorded: inhibited slightly better by the αGal trisaccharide than by the αGal pentasaccharide
clearance ([5]; baboon 1003): 4.18 mL/min/kg
half-life ([5]; baboon 1003): 46.8 min
Vd ([5]; baboon 1003): 0.288 L/kg
clearance ([5]; baboon 1015): 4.88 mL/min/kg
half-life ([5]; baboon 1015): 51.5 min
Vd ([5]; baboon 1015): 0.362 L/kg
Calculated continuous infusion, total amount [5, 8]: 1.04 Kg/14 days
Calculated loading dose [5, 8]: 3.82 g/20 Kg baboon
Calculated loading dose (bolus or 15 min infusion) [5, 8]: 191 mg/kg
Calculated continuous infusion, total amount [5, 9]: 2.08 Kg/14 days
Calculated loading dose [5, 9]: 7.64 g/20 Kg baboon
Calculated loading dose (bolus or 15 min infusion) [5, 9]: 382 mg/kg
Calculated continuous infusion, total amount [5, 10]: 4.15 Kg/14 days
Calculated loading dose [5, 10]: 15.28 g/20 Kg baboon
Calculated loading dose (bolus or 15 min infusion) [5, 10]: 764 mg/kg
Minimal serum (circulating) concentration required to inhibit hyperacute rejection / be efficacious in vivo [6]: ≥ 1 mM
Neutralization of anti-αGal antibody in vitro, in words [3]: effective in neutralizing the anti-αGal antibody in vitro
Relative effectiveness in neutralizing anti-αGal antibody in vitro [3]: ten times more effective than the αGal disaccharide

OC[C@H]1O[C@@](CO)(O[C@H]2O[C@H](CO)[C@@H](O)[C@H](O)[C@H]2O)[C@@H](O)[C@@H]1O [sucrose]
Inhibition of anti-αGal IgG and IgM antibody binding to immobilized mouse laminin [1]: do not inhibit antibody binding
Inhibition of serum IgG and IgM binding to immobilized αGal pentasaccharide glycinamide [2]: not inhibited

OC[C@H]1O[C@H](OC[C@H]2OC(O)[C@H](O)[C@@H](O)[C@@H]2O)[C@H](O)[C@@H](O)[C@H]1O (some centres unmarked) [melibiose, Galα1-6Glu]
Prevention of hyperacute rejection on in vivo administration ([7]; Ye et al., 1994): failed to prevent hyperacute rejection
Toxicity on in vivo administration ([7]; necessary concentrations in pig/primate xenotransplantation): cytotoxic to other tissue; also recorded: proved highly toxic
